The test system of this assay is L1210 leukemia ip in BDF1 mice, survival T/C. In words: NCI In Vivo Anticancer Drug Screen. Data for tumor model L1210 Leukemia (intraperitoneal) in B6D2F1 (BDF1) mice. The conditions noted are these: endpoint: mean survival time, higher = longer survival. The procedure, abridged:
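Ratio derived from survival: compound-dosed mice over vehicle-dosed mice, all bearing a transplantable tumor.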

[1] abbreviates: dose: 100.0 mg/kg/injection, schedule: Q04DX002 (ip), vehicle: Klucel (hydroxypropylcellulose) (HPC).
Where [2] appears, read: dose: 25.0 mg/kg/injection, schedule: Q01DX009 (ip), vehicle: Klucel (hydroxypropylcellulose) (HPC).
The mark [3] stands for this setting: dose: 50.0 mg/kg/injection, schedule: Q01DX009 (ip), vehicle: Klucel (hydroxypropylcellulose) (HPC).
Setting [4] is: dose: 100.0 mg/kg/injection, schedule: Q01DX009 (ip), vehicle: Klucel (hydroxypropylcellulose) (HPC).
The mark [5] stands for this setting: dose: 200.0 mg/kg/injection, schedule: Q01DX001 (ip), vehicle: saline with Tween-80.
[6] abbreviates: dose: 400.0 mg/kg/injection, schedule: Q01DX001 (ip), vehicle: saline with Tween-80.
The mark [7] stands for this setting: dose: 100.0 mg/kg/injection, schedule: Q04DX003 (ip), vehicle: saline with Tween-80.
Setting [8] is: dose: 200.0 mg/kg/injection, schedule: Q04DX003 (ip), vehicle: saline with Tween-80.
Where [9] appears, read: dose: 200.0 mg/kg/injection, schedule: Q04DX002 (ip), vehicle: Klucel (hydroxypropylcellulose) (HPC).
Setting [10] is: dose: 400.0 mg/kg/injection, schedule: Q04DX002 (ip), vehicle: Klucel (hydroxypropylcellulose) (HPC).
Setting [11] is: dose: 100.0 mg/kg/injection, schedule: Q04DX003 (ip), vehicle: Klucel (hydroxypropylcellulose) (HPC).
Setting [12] is: dose: 200.0 mg/kg/injection, schedule: Q04DX003 (ip), vehicle: Klucel (hydroxypropylcellulose) (HPC).
The mark [13] stands for this setting: dose: 200.0 mg/kg/injection, schedule: Q01DX009 (ip), vehicle: Klucel (hydroxypropylcellulose) (HPC).
Setting [14] is: dose: 400.0 mg/kg/injection, schedule: Q01DX009 (ip), vehicle: Klucel (hydroxypropylcellulose) (HPC).

Molecules are shown by their SMILES. Where “and” joins values, the source holds several entries; their conditions need not be identical. Identical values can stand only once. Toxic doses and inconclusive results are not listed.

In PubChem BioAssay AID248 (DTP/NCI, 2004) one finds T/C data, which are given here for 22 compounds.

Consider `CN1CCCC1c1cccnc1` (stereo not given), for which the T/C is, setting by setting: (dose: 0.5 mg/kg/injection, schedule: Q01DX009 (ip), vehicle: saline) 97 % of control; (dose: 0.5 mg/kg/injection, schedule: Q01DX Z (ip), vehicle: saline) 97 % of control; (dose: 1.0 mg/kg/injection, schedule: Q01DX009 (ip), vehicle: saline) 95 % of control and 87 % of control; (dose: 1.0 mg/kg/injection, schedule: Q01DX Z (ip), vehicle: saline) 94 % of control; (dose: 2.0 mg/kg/injection, schedule: Q01DX Z (ip), vehicle: saline) 95 % of control.

With `O=C(O)c1ccccc1CN1CCCC(C(=O)O)C1` (stereo not given), the T/C is, setting by setting: (dose: 6.25 mg/kg/injection, schedule: Q01DX009 (ip), vehicle: saline with Tween-80) 101 % of control; (dose: 12.5 mg/kg/injection, schedule: Q01DX009 (ip), vehicle: saline with Tween-80) 97 % of control; (dose: 25.0 mg/kg/injection, schedule: Q01DX009 (ip), vehicle: saline with Tween-80) 92 % of control.

Take `O=C1C=CC2C3C=CC(CC3)C12` (stereo not given): the T/C is, setting by setting: (dose: 50.0 mg/kg/injection, schedule: Q04DX002 (ip), vehicle: Klucel (hydroxypropylcellulose) (HPC)) 89 % of control; under setting [1], 93 % of control.

Consider `O=[N+]([O-])c1csc2ccccc12`, for which the T/C by setting is: (dose: 12.5 mg/kg/injection, schedule: Q01DX009 (ip), vehicle: Klucel (hydroxypropylcellulose) (HPC)) 97 % of control; under setting [2], 90 % of control; under setting [3], 90 % of control; under setting [4], 105 % of control.

Consider `CN(C)CCOC(=O)C1C2CC3OC(=O)C1C3C2` (stereo not given), for which the T/C reads like this: (dose: 100.0 mg/kg/injection, schedule: Q04DX003 (ip), vehicle: saline) 96 % of control; (dose: 200.0 mg/kg/injection, schedule: Q04DX003 (ip), vehicle: saline) 104 % of control; (dose: 400.0 mg/kg/injection, schedule: Q04DX003 (ip), vehicle: saline) 104 % of control.

Turning to `Cc1ncc(CC#N)c2c1OC(C)(C)OC2`, the T/C is 107 % of control (dose: 12.5 mg/kg/injection, schedule: Q01DX001 (ip), vehicle: carboxymethylcellulose (CMC)); 104 % of control (dose: 25.0 mg/kg/injection, schedule: Q01DX001 (ip), vehicle: carboxymethylcellulose (CMC)); 101 % of control (dose: 50.0 mg/kg/injection, schedule: Q01DX001 (ip), vehicle: carboxymethylcellulose (CMC)).

In the case of `O=C(CSc1ncc2ccccn12)c1ccccc1`, the T/C was 106 % of control (dose: 100.0 mg/kg/injection, schedule: Q04DX002 (ip), vehicle: saline with Tween-80); 92 % of control (dose: 200.0 mg/kg/injection, schedule: Q04DX002 (ip), vehicle: saline with Tween-80); 95 % of control (dose: 400.0 mg/kg/injection, schedule: Q04DX002 (ip), vehicle: saline with Tween-80).

`Nc1nc(N)c2nc(CSc3ccccc3)cnc2n1`: the T/C (dose: 20.0 mg/kg/injection, schedule: Q01DX009 (ip), vehicle: saline with Tween-80) was 97 % of control; the T/C (dose: 40.0 mg/kg/injection, schedule: Q01DX009 (ip), vehicle: saline with Tween-80) was 97 % of control; the T/C (dose: 80.0 mg/kg/injection, schedule: Q01DX009 (ip), vehicle: saline with Tween-80) is 94 % of control.

Turning to `O=C1COC(C(Cl)(Cl)Cl)CN1` (stereo not given), the T/C (dose: 100.0 mg/kg/injection, schedule: Q01DX001 (ip), vehicle: saline with Tween-80) was 108 % of control; the T/C under setting [5] is 105 % of control; the T/C under setting [6] was 103 % of control.

As for `CN(C)c1ccc(SCC(=O)c2ccccc2)cc1`, the T/C under setting [7] is 93 % of control; the T/C under setting [8] was 101 % of control; the T/C (dose: 400.0 mg/kg/injection, schedule: Q04DX003 (ip), vehicle: saline with Tween-80) was 95 % of control.

With `CCN(CC)C(=O)OC/C=C\CC(Cl)(Cl)Cl`, the T/C was 97 % of control (dose: 50.0 mg/kg/injection, schedule: Q01DX009 (ip), vehicle: saline sonified); 111 % of control (dose: 100.0 mg/kg/injection, schedule: Q01DX009 (ip), vehicle: saline sonified); 106 % of control (dose: 100.0 mg/kg/injection, schedule: Q04DX003 (ip), vehicle: saline sonified); 94 % of control (dose: 200.0 mg/kg/injection, schedule: Q01DX009 (ip), vehicle: saline sonified); 106 % of control (dose: 200.0 mg/kg/injection, schedule: Q04DX003 (ip), vehicle: saline sonified); 106 % of control (dose: 400.0 mg/kg/injection, schedule: Q04DX003 (ip), vehicle: saline sonified).

`c1ccc(CN2CCNCC2)cc1`: the T/C is, setting by setting: (dose: 6.25 mg/kg/injection, schedule: Q01DX009 (ip), vehicle: saline) 93 % of control; (dose: 12.5 mg/kg/injection, schedule: Q01DX009 (ip), vehicle: saline) 93 % of control; (dose: 25.0 mg/kg/injection, schedule: Q01DX009 (ip), vehicle: saline) 94 % of control.

As to `Cc1cc(OC(=O)Nc2ccccc2C)ccc1Cl`, the T/C reads like this: under setting [1], 111 % of control; under setting [9], 103 % of control; under setting [10], 118 % of control.

As for `CCCCCCCCC(=O)[O][Hg][c]1ccccc1`, the T/C (dose: 75.0 mg/kg/injection, schedule: Q01DX001 (ip), vehicle: other) was 106 % of control.

In the case of `Cc1[nH]c(C(=O)OCc2ccccc2)c(C)c1C(=O)OCc1ccccc1`, the T/C is, setting by setting: (dose: 12.0 mg/kg/injection, schedule: Q01DX001 (ip), vehicle: Klucel (hydroxypropylcellulose) (HPC)) 94 % of control; (dose: 25.0 mg/kg/injection, schedule: Q01DX001 (ip), vehicle: Klucel (hydroxypropylcellulose) (HPC)) 100 % of control; (dose: 50.0 mg/kg/injection, schedule: Q01DX001 (ip), vehicle: Klucel (hydroxypropylcellulose) (HPC)) 97 % of control; under setting [5], 102 % of control; under setting [6], 102 % of control.

As for `O=c1cnc2ccccc2[nH]1`, the T/C is 108 % of control under setting [7] and 97 % of control under setting [8].

`CCn1c(C)nc2cc(N=Cc3ccc(N(CCCl)CCCl)cc3)ccc21`: the T/C was 113 % of control under setting [1], 106 % of control under setting [9] and 106 % of control under setting [10].

As to `Cc1cc2c(cn1)C(=O)C=CC2=O`, the T/C (dose: 5.0 mg/kg/injection, schedule: Q01DX001 (ip), vehicle: carboxymethylcellulose (CMC)) is 94 % of control and the T/C (dose: 10.0 mg/kg/injection, schedule: Q01DX001 (ip), vehicle: carboxymethylcellulose (CMC)) is 96 % of control.

For `O=C(CBr)c1ccc(-c2ccccc2)cc1`, the T/C was 100 % of control (dose: 6.0 mg/kg/injection, schedule: Q01DX009 (ip), vehicle: Klucel (hydroxypropylcellulose) (HPC)); 96 % of control (dose: 12.0 mg/kg/injection, schedule: Q01DX009 (ip), vehicle: Klucel (hydroxypropylcellulose) (HPC)); 98 % of control under setting [2]; 98 % of control under setting [11]; 102 % of control under setting [12].

As for `Cc1cccc(Cl)c1NC(=O)Nc1ccc(CCO)cc1`, the T/C under setting [4] was 103 % of control, the T/C under setting [13] was 97 % of control and the T/C under setting [14] was 94 % of control.

As to `Nc1nc(=O)n(C2OC(CO)C(O)C2O)cc1Cl` (stereo not given), the T/C is, setting by setting: (dose: 200.0 mg/kg/injection, schedule: Q01DX005 (ip), vehicle: saline) 150 % of control; (dose: 200.0 mg/kg/injection, schedule: Q01DX009 (ip), vehicle: saline) 160 % of control; (dose: 400.0 mg/kg/injection, schedule: Q01DX009 (ip), vehicle: saline) 176 % of control.

With `O=C(c1ccccc1)N(Nc1ccccc1)c1ccccc1`, the T/C by setting is: under setting [3], 94 % of control; under setting [4], 97 % of control; under setting [11], 98 % of control; under setting [13], 97 % of control; under setting [12], 93 % of control; under setting [14], 89 % of control. Also, the T/C (dose: 400.0 mg/kg/injection, schedule: Q04DX003 (ip), vehicle: Klucel (hydroxypropylcellulose) (HPC)) is 98 % of control.
